Results published in patent US20090104171A1, “Metabolic Enhancement Therapy” (priority 2007, published 2009).

Legend:
[1] = oral supplementation, patient groups; cited from earlier work
[2] = tested on: NMDA glycine site; conditions: in vivo; cited from earlier work
[3] = cited from earlier work
[4] = Case study Example 2: person with moderately functioning autism; assay type: in vivo, human; conditions: autistic person; for alleviation of behavioral symptoms: complete formulation
Source text: Person diagnosed with moderately functioning autism. Subject's behaviors were noteworthy for acute social withdrawal, pronounced language deficit, obsessive compulsive behaviors, acute anxiety attacks, aggression, hyperactivity, loss of concentration, fear and panic disorder, hyperactivity, depression, sleep deficit and acoustic hypersensitivity. Subject experienced loss of appetite and was underweight, although growth and sexual development was not stunted. […]

[5] = tested on: bacteria, protozoa or viruses; conditions: cited from earlier work
[6] = tested on: yeasts and yeast-like fungi; conditions: cited from earlier work
[7] = oral; cited from earlier work
[8] = Case study Example 4: person with acute anxiety disorder and depression; conditions: 2 years of treatment
[9] = Case study Example 3: person with schizophrenia; conditions: for relief of symptoms (anxiety, obsessive compulsive behavior, psychosis): schizophrenic, formulation given while remaining on clozapine and lithium
Source text: Person diagnosed with schizophrenia. Hospitalized several times suffering from acute psychotic attack with hallucinations and paranoia. Treated with many typical and atypical antipsychotic drugs. […] Over the years, several diagnoses were given, including bipolar disorder, obsessive-compulsive disorder, affective disorder, and combinations thereof. Medications have included lithium, olanzapine, prozac, and several sleep medications. […] Patient went through years of treatment programs and weekly psychiatric sessions. Although they managed (with extreme difficulty) to obtain BA and MA degrees, paranoia and anxiety prevented them from working. Recent history. Patient has been on an atypical antipsychotic (clozapine) and high doses of lithium carbonate for the past 2 years. […] Patient started on Metabolic Enhancement Therapy with the disclosed formulation, while remaining on clozapine and lithium.

[10] = in vivo; cited from earlier work

Compound: N[C@@H](Cc1c[nH]c2ccc(O)cc12)C(=O)O [5-hydroxytryptophan]
- effect on depression in clinical trials [1]: only minor signs of efficacy

Compound: N[C@@H]1CONC1=O [D-cycloserine]
- extinction of conditioned fear [2]: augment the extinction of conditioned fear

Compound: O=C(O)c1cccnc1 [Niacin]
- effects at pharmacologic doses ([3]; 2-4 g/day): vasodilation (flushing reaction), a marked decrease in circulation fatty acids, cholesterol and lipoproteins, and an elevation of serum glucose and uric acid
- dose without reported toxicity ([3]; in vivo): up to 50 mg/day

Compound: C[C@@H]1[C@H](O)[C@@H](C)/C=C/C=C/CC/C=C/C=C/C=C/C=C/C(O[C@H]2O[C@H](C)[C@@H](O)[C@H](N)[C@@H]2O)CC2O[C@](O)(CC(O)C(O)CCC(O)CC(O)CC(O)CC(=O)O[C@H]1C)CC(O)C2C(=O)O (some centres unmarked) [Nystatin]
- control of chronic intestinal yeast infections [4]: effectively controlled yeast infections
- tolerability / toxicity in words ([3]; in vivo): generally well tolerated by all age groups
- activity against bacteria, protozoa or viruses [5]: no activity
- antifungal activity [6]: both fungistatic and fungicidal
- gastrointestinal absorption [7]: insignificant

Compound: CNCCC(Oc1ccc(C(F)(F)F)cc1)c1ccccc1 (centres unmarked) [Prozac]
- side effects [8]: negative side effects
- side effects induced by medication ([9]; in vivo): induce tremors, rigidity, weight gain and diabetes
- relief of symptoms (anxiety, obsessive compulsive behavior, psychosis) [9]: None provided relief of symptoms

Compound: C[S+](CC[C@H](N)C(=O)O)C[C@H]1O[C@@H](n2cnc3c(N)ncnc32)[C@H](O)[C@@H]1O (some centres unmarked) [S-adenosyl methionine (SAMe), S-adenosyl methionine]
- effect on depression in clinical trials [1]: effective treatment for depression

Compound: Cc1ncc(C[n+]2csc(CCO)c2C)c(N)n1 [Vitamin B1, Thiamine]
- tolerability / toxicity in words ([3]; in vivo): toxicities are very rare

Compound: CC(=O)O[C@H](CC(=O)[O-])C[N+](C)(C)C [acetyl-L-carnitine]
- effect on depression in clinical trials [1]: effective in relieving depression

Compound: NCC(=O)O [glycine]
- effect on depression in clinical trials [1]: useful in the treatment of certain forms of bipolar depression

Compound: O=C([O-])[O-].[Li+].[Li+] [lithium carbonate]
- relief of symptoms (anxiety, obsessive compulsive behavior, psychosis) [9]: Obsessive-compulsive behavior progressively deteriorated

Compound: O=C([O-])c1cc(=O)[nH]c(=O)[nH]1.[Li+] [lithium orotate]
- increase of delivery of lithium to brain by complexing with orotate [10]: over 100 fold

Compound: [Li] [lithium]
- side effects induced by medication ([9]; prior medications): induce tremors, rigidity, weight gain and diabetes

Compound: Cc1cc2c(s1)Nc1ccccc1N=C2N1CCN(C)CC1 [olanzapine]
- side effects induced by medication ([9]; in vivo): induce tremors, rigidity, weight gain and diabetes

Compound: Cc1ncc(CO)c(CO)c1O [vitamin B6, pyridoxine]
- effect on depression in clinical trials [1]: helps alleviate depression associated with premenstrual syndrome
- dose reported to induce peripheral neuropathy ([3]; in vivo): exceed 2,000 mg/day

Compound: amoxtatine
- alleviation of behavioral symptoms [4]: proved totally ineffective

Compound: secretin
- alleviation of behavioral symptoms [4]: proved totally ineffective

Compound: vitamin B12
- effect on depression in clinical trials [1]: responsive to B12 supplementation

Compound: vitamin E
- dose without reported toxicity ([3]; in vivo): up to 800 mg/day
